# Test results published in patent US12640239B2, “Functional biomarkers for statin therapy in age-related macular degeneration (AMD)” (APELIOTUS TECHNOLOGIES, INC., priority 2017, dated 2026).
# Key:
# AMD patients [1] = assay: Dark adaptation testing, rod intercept (RI) time, AdaptDx Dark Adaptometer Extended Test protocol; type: in vivo, human; conditions: for Improvement in RI time: Patient 2, atorvastatin 80 mg/day, July 2018 vs January 2015
# Description: Dark adaptation is preferably measured using devices known in the art, for example as described in U.S. Pat. No. 7,494,222. […] Briefly, the methods of the prior art as described therein, while sitting in complete or near-complete darkness the subject is first exposed to a bright photobleaching light to photobleach one or more of the visual pigments. This is followed by exposure to a series of dim stimulus lights to track visual sensitivity recovery from the photobleach. The intensity of the stimulus lights is gradually […] (generally in a staircase fashion), and the subject indicates whether each stimulus light presentation is detectable (e.g., by pushing a response button) or not detectable (e.g., by failing to push the response button). The just-detectible stimulus light intensity and the time at which it is detected are periodically recorded to generate a dark adaptation threshold curve. Finally, the speed of dark adaption is characterized by a parameter extracted from the threshold curve such as the rod intercept time or the rod-cone break time.
# Table 2 provides detailed information regarding patients 1 to 7, including the baseline diagnosis (diagnosis made when starting statin therapy), ending diagnosis (the diagnosis made on the date of the last referenced evaluation), the results of evaluations performed on each patient, and whether the patient responded to statin therapy. The dark adaptation data in this Example is the rod intercept time (or RI time) reported in minutes. In this Example, the dark adaptation data was collected using the AdaptDx® Dark Adaptometer (MacuLogix, Middletown, PA) running its standard Extended Test protocol. […] Data is automatically analyzed by the AdaptDx Dark Adaptometer to provide an RI time based on recovery to a criterion sensitivity level of 5×10^−3 scotopic cd/m^2. […] The visual acuity data was collected using a standard Snellen or ETDRS eye chart with the results presented using the standard 20/20 vision scale. Drusen resolution was determined by evaluation of fundus and OCT imaging by qualified clinicians experienced in AMD evaluation. Fundus and OCT imaging data was collected using the Heidelberg Engineering Spectralis® SD-OCT (Heidelberg, Germany) or the Karl Zeiss Meditec Cirrus® HD-OCT (Jena, Germany), in both cases running standard protocols with automated data analysis performed by the instruments.
# AMD patients [2] = conditions: high-dose atorvastatin; Vavvas et al., 2016; cited from earlier work
# [3] = system: patient having intermediate AMD; assay: Patient self-report of perceived changes in visual function during statin treatment; type: in vivo, human
# Description: The patient was asked to report any perceived changes in visual function during the course of the treatment.
# The patient was asked to report any perceived changes in visual function during the course of the treatment. […] The self-reported improvement was confirmed at months 15 and 22 of treatment. […] The resolution of the drusen was confirmed by fundus photography and optical coherence tomography (OCT) imaging.
compound,measurement,setting,value
CC(C)c1c(C(=O)Nc2ccccc2)c(-c2ccccc2)c(-c2ccc(F)cc2)n1CC[C@@H](O)C[C@@H](O)CC(=O)O [atorvastatin],Improvement in RI time,AMD patients [1]; OD,1.67 min
same,Improvement in RI time,AMD patients [1]; OS,2.60 min
same,Change in RI time,"AMD patients [1]; Patient 5, atorvastatin 80 then 20 mg/day, pravastatin 20 mg/day from April 2018, left eye, June 2018 vs October 2015",essentially unchanged
same,Increase in RI time,"AMD patients [1]; Patient 5, atorvastatin 80 then 20 mg/day, pravastatin 20 mg/day from April 2018, right eye, June 2018 vs October 2015",7.51 min
same,RI (rod intercept time),"AMD patients [1]; Patient #1, atorvastatin 20 to 80 mg/day, OD, month 24 (July 2015)",RI > 20 minutes
same,RI (rod intercept time),"AMD patients [1]; Patient #1, atorvastatin 20 to 80 mg/day, OD, month 60 (July 2018)",RI > 20 minutes
same,RI (rod intercept time),"AMD patients [1]; Patient #1, atorvastatin 20 to 80 mg/day, OS, month 24 (July 2015)",RI = 17.13 minutes
same,RI (rod intercept time),"AMD patients [1]; Patient #1, atorvastatin 20 to 80 mg/day, OS, month 60 (July 2018)",RI > 20 minutes
same,RI (rod intercept time),"AMD patients [1]; Patient #2, atorvastatin 80 mg/day, OD, month 24 (January 2015)",RI = 18.72 minutes
same,RI (rod intercept time),"AMD patients [1]; Patient #2, atorvastatin 80 mg/day, OD, month 66 (July 2018)",RI = 17.05 minutes
same,RI (rod intercept time),"AMD patients [1]; Patient #2, atorvastatin 80 mg/day, OS, month 24 (January 2015)",RI = 9.88 minutes
same,RI (rod intercept time),"AMD patients [1]; Patient #2, atorvastatin 80 mg/day, OS, month 66 (July 2018)",RI = 7.28 minutes
same,RI (rod intercept time),"AMD patients [1]; Patient #3, atorvastatin 80 mg/day, OD, month 8 (June 2017)",RI > 20 minutes
same,RI (rod intercept time),"AMD patients [1]; Patient #3, atorvastatin 80 mg/day, OD, month 20 (June 2018)",RI > 20 minutes
same,RI (rod intercept time),"AMD patients [1]; Patient #3, atorvastatin 80 mg/day, OS, month 8 (June 2017)",RI > 20 minutes
same,RI (rod intercept time),"AMD patients [1]; Patient #3, atorvastatin 80 mg/day, OS, month 20 (June 2018)",RI > 20 minutes
same,RI (rod intercept time),"AMD patients [1]; Patient #4, atorvastatin 80 mg/day, OD, month 0 (May 2018), baseline",RI > 20 minutes
same,RI (rod intercept time),"AMD patients [1]; Patient #4, atorvastatin 80 mg/day, OD, month 4 (September 2018)",RI > 20 minutes
same,RI (rod intercept time),"AMD patients [1]; Patient #4, atorvastatin 80 mg/day, OS, month 0 (May 2018), baseline",RI > 20 minutes
same,RI (rod intercept time),"AMD patients [1]; Patient #4, atorvastatin 80 mg/day, OS, month 4 (September 2018)",RI > 20 minutes
same,RI (rod intercept time),"AMD patients [1]; Patient #5, atorvastatin 80 mg/day (suspended January 2015-February 2016), then 20 mg/day, pravastatin 20 mg/day from April 2018, OD, month 52 (June 2018)",RI = 17.19 minutes
same,RI (rod intercept time),"AMD patients [1]; Patient #5, atorvastatin 80 mg/day (suspended January 2015-February 2016), then 20 mg/day, pravastatin 20 mg/day from April 2018, OS, month 52 (June 2018)",RI = 10.81 minutes
same,RI (rod intercept time),"AMD patients [1]; Patient #5, atorvastatin 80 mg/day January 2014 to January 2015, therapy suspended until February 2016, OD, month 21 (October 2015)",RI = 9.68 minutes
same,RI (rod intercept time),"AMD patients [1]; Patient #5, atorvastatin 80 mg/day January 2014 to January 2015, therapy suspended until February 2016, OS, month 21 (October 2015)",RI = 11.04 minutes
same,RI (rod intercept time),"AMD patients [1]; Patient #6, atorvastatin 80 mg/day from November 2017, OD, month −3 (August 2017), before initiation",RI = 5.75 minutes
same,RI (rod intercept time),"AMD patients [1]; Patient #6, atorvastatin 80 mg/day, OD, month 9 (August 2018)",RI = 2.55 minutes
same,RI (rod intercept time),"AMD patients [1]; Patient #7, atorvastatin 10 to 20 mg/day, OD, month 0 (April 2016), baseline",RI > 20 minutes
same,RI (rod intercept time),"AMD patients [1]; Patient #7, atorvastatin 10 to 20 mg/day, OD, month 27 (July 2018)",RI > 20 minutes
same,RI (rod intercept time),"AMD patients [1]; Patient #7, atorvastatin 10 to 20 mg/day, OS, month 0 (April 2016), baseline",RI > 20 minutes
same,RI (rod intercept time),"AMD patients [1]; Patient #7, atorvastatin 10 to 20 mg/day, OS, month 27 (July 2018)",RI > 20 minutes
same,Patients treated with disappearance of drusen deposits and improvement in vision,AMD patients [2],43%
same,Self-reported change in contrast sensitivity,"[3]; Example 1: adult female, oral atorvastatin increasing to 80 mg per day over six months, no objective testing",improvement in contrast sensitivity
same,Self-reported change in dark adaptation,"[3]; Example 2: adult person, oral atorvastatin 10 to 80 mg per day for 23 months, month 7, confirmed at months 15 and 22, no objective testing",improvement in dark adaptation
